In patent publication EP0333005A1, “Light-sensitive dialkoxybenzenediazonium compound, method for its preparation and its use” (priority 1988, dated 1989) one finds Löslichkeit data, which are given here for 2 molecules.

The nature of this series: Solubility in isopropanol/formic acid. In kind it is physicochemical. To be noted: Isopropanol/Ameisensäure (9:1), 20 °C. On the procedure:
So beträgt die Löslichkeit in der Form des 2,5-Diethoxy-4-thio(4′-methylphenyl)benzoldiazonium-sulfoisophthalats in Isopropanol/Ameisensäure (9:1) bei 20 °C 7,3 g/l, wogegen die entsprechende erfindungsgemäße Verbindung der Formel I sich zu 12,6 g/l bei 20 °C löst. Bei den bekannten Sulfoisophtalaten müssen daher zur besseren Lösung Löslichkeit verleihende Verbindungen zugesetzt werden.

SMILES strings stand for the structures.

Consider `CCOc1cc(Sc2ccc(C)cc2)c(OCC)cc1[N+]#N` [2,5-Diethoxy-4-thio(4′-methylphenyl)benzoldiazonium-sulfoisophthalat, reference compound], for which the Löslichkeit is 7,3 g/l. As to `CCOc1cc(Sc2ccc(C)cc2)c(OCC)cc1[N+]#N` [Beispiel 1, 2,5-Diethoxy-4-thio(4′-methylphenyl)benzoldiazonium-sulfosalicylat], the Löslichkeit (listed as entsprechende erfindungsgemäße Verbindung der Formel I) is listed as 12,6 g/l.
